Reference: the supplement of paper PMC10307832

Tests used:
Test in all cases: relative viability (nuclei count vs DMSO), 5 days (fraction); higher = more cells survive
COR-L23 = tested on: COR-L23
Method in brief: (§1)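 For relative viability, nuclei counts in treated wells were divided by those in vehicle wells. Lung cancer cell lines had been pin-tool dosed in 1536-well plates the day after seeding and cultured for 5 days, then fixed and stained in one step (final 0.05% Triton X-100, 1% formaldehyde, 1 ug/ml Hoechst) and imaged at 4×. Doses were one drug alone or a fixed anchor-drug dose plus five library-drug doses (not always all listed) in √10 steps, and values are duplicate-plate medians.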

ChaGo-K-1 = tested on: ChaGo-K-1
Method in brief: as §1

EPLC-272H = tested on: EPLC-272H
Method in brief: as §1

HCC-15 = tested on: HCC-15
Method in brief: as §1

HCC-366 = tested on: HCC-366
Method in brief: as §1

HCC-44 = tested on: HCC-44
Method in brief: as §1

HCC-827 = tested on: HCC-827
Method in brief: as §1

LCLC-103H = tested on: LCLC-103H
Method in brief: as §1

NCI-H1355 = tested on: NCI-H1355
Method in brief: as §1

NCI-H1734 = tested on: NCI-H1734
Method in brief: as §1

NCI-H1793 = tested on: NCI-H1793
Method in brief: as §1

NCI-H1944 = tested on: NCI-H1944
Method in brief: as §1

NCI-H2009 = tested on: NCI-H2009
Method in brief: as §1

NCI-H2023 = tested on: NCI-H2023
Method in brief: as §1

NCI-H2085 = tested on: NCI-H2085
Method in brief: as §1

NCI-H2228 = tested on: NCI-H2228
Method in brief: as §1

NCI-H2347 = tested on: NCI-H2347
Method in brief: as §1

NCI-H2405 = tested on: NCI-H2405
Method in brief: as §1

NCI-H3122 = tested on: NCI-H3122
Method in brief: as §1

PC-14 = tested on: PC-14
Method in brief: as §1

SW 1573 = tested on: SW 1573
Method in brief: as §1

`Cc1cn(-c2cc(NC(=O)c3ccc(C)c(Nc4nccc(-c5cccnc5)n4)c3)cc(C(F)(F)F)c2)cn1` [Nilotinib] + CC(=O)Nc1cccc(-n2c(=O)n(C3CC3)c(=O)c3c(Nc4ccc(I)cc4F)n(C)c(=O)c(C)c32)c1 [Trametinib] (partner 0.02 µM) gave a relative viability (COR-L23; first compound 0.001 µM) of 0.472, a relative viability (COR-L23; first compound 0.003162 µM) of 0.419 and a relative viability (COR-L23; first compound 0.01 µM) of 0.384. For the same compound, the relative viability (COR-L23; first compound 0.03162 µM) was 0.283, the relative viability (COR-L23; first compound 0.1 µM) was 0.266 and the relative viability (ChaGo-K-1; first compound 0.001 µM) was 0.824. For the same compound, the relative viability (ChaGo-K-1; first compound 0.003162 µM) was 1.15, the relative viability (ChaGo-K-1; first compound 0.01 µM) was 1.03 and the relative viability (ChaGo-K-1; first compound 0.03162 µM) was 0.804. It also gave a relative viability (ChaGo-K-1; first compound 0.1 µM) of 0.869, a relative viability (EPLC-272H; first compound 0.001 µM) of 0.289 and a relative viability (EPLC-272H; first compound 0.003162 µM) of 0.233. The relative viability (EPLC-272H; first compound 0.01 µM) was 0.34, the relative viability (EPLC-272H; first compound 0.03162 µM) was 0.273 and the relative viability (EPLC-272H; first compound 0.1 µM) was 0.225. The relative viability (HCC-15; first compound 0.001 µM) was 0.375, the relative viability (HCC-15; first compound 0.003162 µM) was 0.357 and the relative viability (HCC-15; first compound 0.01 µM) was 0.369. It also gave a relative viability (HCC-15; first compound 0.03162 µM) of 0.284, a relative viability (HCC-15; first compound 0.1 µM) of 0.233 and a relative viability (HCC-366; first compound 0.001 µM) of 0.35. For the same compound, the relative viability (HCC-366; first compound 0.003162 µM) was 0.361, the relative viability (HCC-366; first compound 0.01 µM) was 0.327 and the relative viability (HCC-366; first compound 0.03162 µM) was 0.243. The relative viability (HCC-366; first compound 0.1 µM) was 0.145, the relative viability (HCC-44; first compound 0.001 µM) was 0.951 and the relative viability (HCC-44; first compound 0.003162 µM) was 1.03. It also gave a relative viability (HCC-44; first compound 0.01 µM) of 1.21, a relative viability (HCC-44; first compound 0.1 µM) of 0.774 and a relative viability (HCC-827; first compound 0.001 µM) of 0.593. The relative viability (HCC-827; first compound 0.003162 µM) was 0.523, the relative viability (HCC-827; first compound 0.03162 µM) was 0.542 and the relative viability (HCC-827; first compound 0.1 µM) was 0.469. It also gave a relative viability (LCLC-103H; first compound 0.001 µM) of 0.588, a relative viability (LCLC-103H; first compound 0.003162 µM) of 0.773 and a relative viability (LCLC-103H; first compound 0.01 µM) of 0.75. It also gave a relative viability (LCLC-103H; first compound 0.03162 µM) of 0.579, a relative viability (LCLC-103H; first compound 0.1 µM) of 0.728 and a relative viability (NCI-H1355; first compound 0.001 µM) of 0.378. The relative viability (NCI-H1355; first compound 0.003162 µM) was 0.469, the relative viability (NCI-H1355; first compound 0.01 µM) was 0.44 and the relative viability (NCI-H1355; first compound 0.03162 µM) was 0.356. The relative viability (NCI-H1355; first compound 0.1 µM) was 0.307, the relative viability (NCI-H1734; first compound 0.001 µM) was 0.57 and the relative viability (NCI-H1734; first compound 0.003162 µM) was 0.664. It also gave a relative viability (NCI-H1734; first compound 0.01 µM) of 0.547, a relative viability (NCI-H1734; first compound 0.03162 µM) of 0.345 and a relative viability (NCI-H1734; first compound 0.1 µM) of 0.349. It also gave a relative viability (NCI-H1793; first compound 0.001 µM) of 0.403, a relative viability (NCI-H1793; first compound 0.003162 µM) of 0.396 and a relative viability (NCI-H1793; first compound 0.01 µM) of 0.328. For the same compound, the relative viability (NCI-H1793; first compound 0.03162 µM) was 0.239, the relative viability (NCI-H1793; first compound 0.1 µM) was 0.251 and the relative viability (NCI-H1944; first compound 0.001 µM) was 0.378. It also gave a relative viability (NCI-H1944; first compound 0.003162 µM) of 0.415, a relative viability (NCI-H1944; first compound 0.01 µM) of 0.39 and a relative viability (NCI-H1944; first compound 0.03162 µM) of 0.383. It also gave a relative viability (NCI-H1944; first compound 0.1 µM) of 0.322, a relative viability (NCI-H2009; first compound 0.001 µM) of 0.232 and a relative viability (NCI-H2009; first compound 0.003162 µM) of 0.203. It also gave a relative viability (NCI-H2009; first compound 0.01 µM) of 0.278, a relative viability (NCI-H2009; first compound 0.03162 µM) of 0.2 and a relative viability (NCI-H2009; first compound 0.1 µM) of 0.197. The relative viability (NCI-H2023; first compound 0.001 µM) was 0.485, the relative viability (NCI-H2023; first compound 0.003162 µM) was 0.619 and the relative viability (NCI-H2023; first compound 0.01 µM) was 0.508. It also gave a relative viability (NCI-H2023; first compound 0.03162 µM) of 0.329, a relative viability (NCI-H2023; first compound 0.1 µM) of 0.433 and a relative viability (NCI-H2085; first compound 0.001 µM) of 0.483. The relative viability (NCI-H2085; first compound 0.003162 µM) was 0.584, the relative viability (NCI-H2085; first compound 0.01 µM) was 0.469 and the relative viability (NCI-H2085; first compound 0.03162 µM) was 0.456. For the same compound, the relative viability (NCI-H2085; first compound 0.1 µM) was 0.54, the relative viability (NCI-H2228; first compound 0.001 µM) was 0.437 and the relative viability (NCI-H2228; first compound 0.003162 µM) was 0.552. It also gave a relative viability (NCI-H2228; first compound 0.01 µM) of 0.576, a relative viability (NCI-H2228; first compound 0.03162 µM) of 0.255 and a relative viability (NCI-H2228; first compound 0.1 µM) of 0.295. The relative viability (NCI-H2347; first compound 0.001 µM) was 0.267, the relative viability (NCI-H2347; first compound 0.003162 µM) was 0.23 and the relative viability (NCI-H2347; first compound 0.01 µM) was 0.234. The relative viability (NCI-H2347; first compound 0.03162 µM) was 0.268, the relative viability (NCI-H2347; first compound 0.1 µM) was 0.271 and the relative viability (NCI-H2405; first compound 0.001 µM) was 0.504. The relative viability (NCI-H2405; first compound 0.003162 µM) was 0.406, the relative viability (NCI-H2405; first compound 0.01 µM) was 0.457 and the relative viability (NCI-H2405; first compound 0.03162 µM) was 0.325. The relative viability (NCI-H2405; first compound 0.1 µM) was 0.327, the relative viability (NCI-H3122; first compound 0.001 µM) was 0.249 and the relative viability (NCI-H3122; first compound 0.003162 µM) was 0.303. It also gave a relative viability (NCI-H3122; first compound 0.03162 µM) of 0.157, a relative viability (NCI-H3122; first compound 0.1 µM) of 0.158 and a relative viability (PC-14; first compound 0.001 µM) of 0.671. The relative viability (PC-14; first compound 0.003162 µM) was 1.14, the relative viability (PC-14; first compound 0.01 µM) was 0.708 and the relative viability (PC-14; first compound 0.03162 µM) was 0.448. The relative viability (PC-14; first compound 0.1 µM) was 0.526, the relative viability (SW 1573; first compound 0.001 µM) was 0.487 and the relative viability (SW 1573; first compound 0.003162 µM) was 0.72. It also gave a relative viability (SW 1573; first compound 0.01 µM) of 0.456 and a relative viability (SW 1573; first compound 0.1 µM) of 0.314.
